Molecules are shown by their SMILES.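 Values below derive from 48-hour exposures of cells grown in 96-well plates, with endpoints linearly interpolated between the two concentrations bracketing the appropriate inhibition level. TGI is the concentration that stops growth completely.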

What all share (experiment): NCI tumour cell line growth inhibition, 48 h
Experiment [1] deals with DMS 114 small cell lung.
Experiment [2] has as its system DMS 273 small cell lung.
Experiment [3] has as its system P388 leukemia.
The subject of experiment [4] is P388/ADR leukemia.
The subject of experiment [5] is SN12K1 renal.
Experiment [6] concerns RXF-631 renal.

Take `CCOC(=O)/C=C/c1c[nH]c(=O)[nH]c1=O`: the TGI in experiment [1], in experiment [2], in experiment [3], in experiment [4] and in experiment [5] was above 75 µM in each case.

As for `COc1ccc2c(c1)C=C(C(C)(C)C)NS2(=O)=O`, the TGI in experiment [1], in experiment [2] and in experiment [6] was above 100 µM throughout.

For `CC(c1ccccc1)C(O)S(=O)(=O)O` (configuration not stated), the TGI in experiment [1], in experiment [2] and in experiment [6] was above 100 µM in each case.

For `COc1ccc(OCC(C)(C)O)cc1`, the TGI in experiment [1], in experiment [2], in experiment [3] and in experiment [5] was above 100 µM throughout.

Turning to `COc1ccc2c(c1)c(=O)c1c(NCCCN(C)C)ccc3ncn2c31`, the figures for the TGI in experiment [1] and in experiment [2] were 22.6 µM and 15.5 µM, respectively.

Values taken from PubChem BioAssay (NCI).
